Measurements published in patent US4313931A, “Fused dibenzo imidazolo compounds, compositions and use” (Boehringer Ingelheim KG, priority 1980, dated 1982).
Structures can show the parent of a compound that is named as a salt.

Key:
[1] = tested on: sensitized rats (passive cutaneous anaphylaxis); test: passive cutaneous anaphylaxis (PCA) in sensitized rats; format: in vivo; details: po; rat p.o.
[2] = in vivo; details: po, mouse p.o.
[3] = tested on: sensitized rats (passive lung anaphylaxis); test: animal or person; details: Rattus norvegicus, iv, read-out: PLA ED50
Procedure: (a) Tests in sensitized rats were performed after passive sensitization of the animals by IgE-antibodies and subsequent antigen challenge. In this manner a passive cutaneous anaphylaxis (GOOSE et al. (1969): Immunology 16, 749) (PCA) and a passive lung anaphylaxis ([…] et al. (1975): Br. J. Pharmac. 55, 57) (PLA, experimental asthma) could be provoked.

| Structure (SMILES) | ED50 [1] [mg/kg] | LD50 [2] [mg/kg] | ED50 [3] [mg/kg] |
| --- | --- | --- | --- |
| Cl.NC1=NCC2c3ccccc3Cc3cc(Cl)ccc3N12 (centres unmarked) [Example 1(a), 3-amino-7-chloro-9,13b-dihydro-1H-dibenzo[c,f]-imidazo[1,5-a]azepine hydrochloride] | 0.96 |  |  |
| Br.NC1=NCC2c3ccccc3Oc3ccccc3N12 (centres unmarked) [Example 1(c), 3-amino-1,13b-dihydro-dibenzo[b,f]imidazo[1,5-d][1,4]-oxazepine hydrobromide] | 1.1 | 340 |  |
| NC1=NCC2c3cc(Cl)ccc3Oc3ccccc3N12 (centres unmarked) [Example 1(d), 3-amino-12-chloro-1,13b-dihydro[b,f]imidazo[1,5-d][1,4]oxazepine hydrobromide] | 2.5 |  |  |
| Br.NC1=NCC2c3ccccc3Sc3ccccc3N12 (centres unmarked) [Example 1(i), 3-amino-1,13b-dihydro-dibenzo[b,f]imidazo[1,5-d][1,4]-thiazepine hydrobromide] | 3.8 |  |  |
| Br.NC1=NCC2c3cc(Cl)ccc3Sc3ccccc3N12 (centres unmarked) [Example 1(l), 3-amino-12-chloro-1,13b-dihydro-dibenzo[b,f]imidazo[1,5-d][1,4]thiazepine hydrobromide] | 5.4 |  |  |
| NC1=NCC2c3ccccc3Cc3ccccc3N12 (centres unmarked) [Example 1, 3-Amino-9,13b-dihydro-1H-dibenzo[c,f]imidazo[1,5-a]azepine hydrobromide] | 6 |  | 0.052 |
